In patent US20200253868A1, “CELL AUTOPHAGY INHIBITOR AND PREPARATION METHOD THEREFOR AND APPLICATION THEREOF” (CHINA PHARMACEUTICAL UNIVERSITY, priority 2017, published 2020):

What was measured:
[1] = test system: KRAS mutant HCT116 nude mice xenograft; test: Human colon cancer xenograft in nude mice, tumor inhibition rate; format: in vivo, BABL/c nude mice; conditions: injection via tail vein, once every other day, 14 days
Procedure: (§1) HCT116 is diluted with serum-free McCoy's 5a medium to 1×10^7 cells/mL, and 100 μL of the cell suspension is inoculated subcutaneously in the left armpit of BABL/c nude mice and grown for 7 days to form a tumor-bearing mouse model. The tumor-bearing mice with good growth are inoculated and randomly divided into groups. The RA-V nano-micelle injection prepared in Embodiment 3 is administered through the tail vein and administered once every other day, and the animals used are sacrificed 14 days after the administration, and the tumors are removed and weighed, calculate tumor suppression rate and perform statistical processing. Tumor inhibition rate (%)=(average tumor weight in the control group-average tumor weight in the experimental group)/average tumor weight in the control group×100%.
as §1, with “RA-XII(2)” for “The RA-V nano-micelle”, “injection” for “injection prepared in Embodiment 3”

[2] = test system: KRAS dependent H441 model; test: Human lung cancer xenograft in nude mice, tumor inhibition rate; format: in vivo, BABL/c nude mice; conditions: 2.5 mg/kg, nano-micelle injection, tail vein, once every other day, 14 days
Procedure: as §1, with “Human lung cancer cells KRAS dependent H441 and KRAS independent H460 are” for “HCT116 is”, “physiological saline” for “serum-free McCoy's 5a medium”, “form” for “form a”

[3] = test system: KRAS independent H460 model; test: as above; format: in vivo, BABL/c nude mice; conditions: 2.5 mg/kg, nano-micelle injection, tail vein, once every other day, 14 days
Procedure: as §1, with “Human lung cancer cells KRAS dependent H441 and KRAS independent H460 are” for “HCT116 is”, “physiological saline” for “serum-free McCoy's 5a medium”, “form” for “form a”

[4] = test system: H358 cells; test: Western blot of Capsase3, BCL-2 and BCL-XL; format: cell-based, human
[5] = test system: KRAS dependent H441 cells; test: Western blot of autophagy-related proteins LC3, Atg7 and Beclin1; format: cell-based, human; conditions: H441, 0, 50, 100, 200 nM, 24 hours
Procedure: (§2) KRAS dependent H441 and H358 cells which are cultured overnight in a 10% FBS medium are seeded in a 24-well plate at an appropriate density, after 24 hours, RA-V (1) with a concentration of 0, 50, 100, and 200 nM is added to react for 24 hours, and then the cells are collected to detect the expression levels of autophagy-related proteins LC3, Atg7 and Beclin1 by the Western blot experiment.

[6] = test system: KRAS dependent H358 cells; test: as above; format: cell-based, human; conditions: H358, 0, 50, 100, 200 nM, 24 hours
Procedure: as §2

[7] = test system: KRAS dependent H441 cells; test: PI/Annexin V double staining, flow cytometry; format: cell-based, human; conditions: H441, 24 hours
Procedure: (§3) KRAS independent A549 and H460 and KRAS dependent H441 and H358 cell lines which are cultured overnight in a 10% FBS medium, are digested by trypsin to form cell suspensions, which are seeded at a suitable concentration on a 6-well plate, after 24 h, RA-V (1) is added to treat for 24 hours, and are digested by trypsin, and centrifuge at 2000 rpm for 5-10 minutes at room temperature to collect cells; resuspend the cells once with pre-chilled 1×PBS (4° C.), centrifuge at 2000 rpm for 5-10 minutes, and wash the cells; add 300 μL of 1×Binding Buffer to resuspend the cells; add 5 μL of Annexin V-FITC and mix, and incubate for 15 minutes at room temperature away from light; add 5 μL of PI staining 5 minutes before the operation, and detect the cells by the flow cytometry.

[8] = test system: KRAS dependent H358 cells; test: PI/Annexin V double staining, flow cytometry; format: cell-based, human; conditions: H358, 24 hours
Procedure: as §3

[9] = test system: KRAS independent A549 cells; test: PI/Annexin V double staining, flow cytometry; format: cell-based, human; conditions: A549, 24 hours
Procedure: as §3

[10] = test system: KRAS independent H460 cells; test: PI/Annexin V double staining, flow cytometry; format: cell-based, human; conditions: H460, 24 hours
Procedure: as §3

[11] = test system: H460 cells; test: Western blot of Capsase3, BCL-2 and BCL-XL; format: cell-based, human
Procedure: (§4) […] A549 and H460 cells which are cultured overnight in a 10% FBS medium are seeded in a 24-well plate at an appropriate density, after 24 hours, the cells are collected to detect the expression levels of […] proteins BCL-2, BCL-XL and […]3 by the Western blot experiment.

[12] = test system: A549 cells; test: Western blot of Capsase3, BCL-2 and BCL-XL; format: cell-based, human
Procedure: as §4

[13] = test system: KRAS dependent H441 cells; test: MTT assay of cell viability; format: cell-based, human; conditions: H441, 0, 50, 100, 200 nM, 24 hours
Procedure: (§5) MTT assay is used to determine the cell viability. KRAS independent A549 and H460 and KRAS dependent H441 and H358 cell lines which are cultured overnight in a 10% FBS medium, are digested by trypsin to form cell suspensions, which are seeded at a suitable concentration on a 96-well plate with 100 μl/well, cultured in a CO2 incubator for 24 hours until the cells are completely attached, and RA-V (1) with a final concentration of 0, 50, 100, 200 nM is added to react for 24 hours, and then 20 μl of MTT solution (5 mg/ml in PBS, pH=7.4) is added to each well and continue to incubate for 4 hours, stop the culture, and carefully discard the culture supernatant in the wells. Add 150 μl DMSO to each well and shake for 10 minutes to fully dissolve the crystals. Select the wavelength of 490 nm, measure the light absorption value of each well on the enzyme-linked immunosorbent detector, record the results, draw the cell growth curve with time as the abscissa and absorbance value as the ordinate.

[14] = test system: KRAS dependent H358 cells; test: MTT assay of cell viability; format: cell-based, human; conditions: H358, 0, 50, 100, 200 nM, 24 hours
Procedure: as §5

[15] = test system: H441 cells; test: Western blot of Capsase3, BCL-2 and BCL-XL; format: cell-based, human
[16] = test system: KRAS dependent H441 cells; test: GFP-LC3 transfection, autophagosome formation by fluorescence microscope; format: cell-based, human; conditions: H441, 24 hours
Procedure: (§6) KRAS dependent H441 and H358 cells which are cultured overnight in a 10% FBS medium are seeded in a 24-well plate at an appropriate density and transfected with the GFP-LC3 plasmid, after 24 hours, RA-V (1) is added to react for 24 hours, and the localization of GFP-LC3 is observed with a fluorescence microscope, and the number of autophagy cells is calculated quantitatively.

[17] = test system: KRAS dependent H358 cells; test: as above; format: cell-based, human; conditions: H358, 24 hours
Procedure: as §6

COc1ccc(C[C@H]2C(=O)N[C@@H](C)C(=O)N(C)C3Cc4ccc(cc4)Oc4cc(ccc4O[C@@H]4OC(CO)[C@@H](O)[C@H](O)C4O)C[C@@H](C(=O)N[C@H](C)C(=O)N[C@@H](C)C(=O)N2C)N(C)C3=O)cc1 (some centres unmarked) [RA-XII (2), RA-XII]
tumor inhibition rate ([1]; HCT116, high dosage): 79.92% | tumor inhibition rate ([1]; HCT116, medium dosage): 68.47%

COc1ccc(C[C@H]2C(=O)N[C@@H](C)C(=O)N(C)C3Cc4ccc(cc4)Oc4cc(ccc4O)C[C@@H](C(=O)N[C@H](C)C(=O)N[C@@H](C)C(=O)N2C)N(C)C3=O)cc1 [RA-V (1), RA-V]
tumor inhibition rate [2]: 50.4% | anti-tumor effect [3]: not effective | cell apoptosis by expression of Capsase3, BCL-2 and BCL-XL [4]: significantly induces the cell apoptosis | expression levels of LC3-II, Atg7 and Beclin1 [5]: decrease with the increase of the concentration | expression levels of LC3-II, Atg7 and Beclin1 [6]: decrease with the increase of the concentration | tumor inhibition rate ([1]; HCT116, high dosage): 66.67% | tumor inhibition rate ([1]; HCT116, medium dosage): 41.67% | cell apoptosis (PI/Annexin V) [7]: significantly induces the cell apoptosis | cell apoptosis (PI/Annexin V) [8]: significantly induces the cell apoptosis | cell apoptosis (PI/Annexin V) [9]: no significant effect | cell apoptosis (PI/Annexin V) [10]: no significant effect | cell apoptosis by expression of Capsase3, BCL-2 and BCL-XL [11]: no significant effect | cell apoptosis by expression of Capsase3, BCL-2 and BCL-XL [12]: no significant effect | cell survival (MTT) [13]: inhibits the survival | cell survival (MTT) [14]: inhibits the survival | cell apoptosis by expression of Capsase3, BCL-2 and BCL-XL [15]: significantly induces the cell apoptosis | GFP-LC3 of treated cells compared with the blank group [16]: significantly reduce | GFP-LC3 of treated cells compared with the blank group [17]: significantly reduce
